Test results reported in ChEMBL document CHEMBL1799997, “Discovery of omecamtiv mecarbil the first, selective, small molecule activator of cardiac Myosin” (ACS Med Chem Lett, 2010).
In brackets after ≈: the same amount, converted by molar mass. Activity calls are given as the source filed them. The calls are words filed in the database; no cut-off is given here.

Legend:
Rattus norvegicus [1] = species: Rattus norvegicus; test: Activation of Sprague-Dawley rat myosin in cardiomyocytes assessed as compound concentration resulting in 40% increase in ATPase activity at calcium concentrations that produced 25-50% of maximum calcium dependent activation; type: cell-based
[2] = Kinetic solubility of the compound; type: physicochemical
[3] = Plasma protein binding in Sprague-Dawley rat; type: ADME, cell-free; conditions: read-out: PPB (converted)
[4] = Induction of contractility in Sprague-Dawley rat Cardiomyocytes assessed as change in fractional shortening at 2 uM; type: functional, Cardiac muscle cell
Cytochrome P450 1A2 = biological target: T1, Cytochrome P450 1A2 (Homo sapiens, UniProt P05177); test: Inhibition of CYP1A2; type: ADME
T1 sequence (P05177 whole entry): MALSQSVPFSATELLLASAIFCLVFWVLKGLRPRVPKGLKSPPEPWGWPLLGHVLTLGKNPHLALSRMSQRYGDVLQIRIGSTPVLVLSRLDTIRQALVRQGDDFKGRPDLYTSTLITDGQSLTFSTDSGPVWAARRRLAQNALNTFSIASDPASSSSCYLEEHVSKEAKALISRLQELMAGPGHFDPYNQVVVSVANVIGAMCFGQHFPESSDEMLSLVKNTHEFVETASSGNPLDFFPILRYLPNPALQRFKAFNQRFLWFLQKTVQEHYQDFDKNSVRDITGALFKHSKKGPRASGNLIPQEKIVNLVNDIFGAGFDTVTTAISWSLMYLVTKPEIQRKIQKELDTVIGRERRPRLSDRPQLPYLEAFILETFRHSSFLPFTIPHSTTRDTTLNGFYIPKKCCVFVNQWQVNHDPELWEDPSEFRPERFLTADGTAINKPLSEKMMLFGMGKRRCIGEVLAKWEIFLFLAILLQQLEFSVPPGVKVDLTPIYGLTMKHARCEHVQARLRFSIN

[5] = Induction of contractility in Sprague-Dawley rat Cardiomyocytes assessed as change in fractional shortening at 0.8 uM; type: functional, Cardiac muscle cell
Aorta = test: Inhibition of vasodilation in Sprague-Dawley rat aortic ring; type: functional
[6] = Solubility of the compound at pH 5 by shake flask method; type: physicochemical; conditions: buffer
[7] = Ratio of extraction in human Liver microsomes; type: ADME, Microsome; conditions: read-out: ERH
[8] = Induction of contractility in Sprague-Dawley rat Cardiomyocytes assessed as change in fractional shortening at 0.4 uM; type: functional, Cardiac muscle cell
[9] = Induction of contractility in Sprague-Dawley rat Cardiomyocytes assessed as change in fractional shortening at 10 uM; type: functional, Cardiac muscle cell
CYP1A2 = biological target: T2, CYP1A2 (Homo sapiens, UniProt P05177); test: Inhibition of CYP1A2 at 10 uM; type: ADME
T2 sequence (P05177 whole entry): T1 sequence (P05177 whole entry)

Bos taurus [10] = species: Bos taurus; test: Activation of bovine myosin in cardiac sarcomere assessed as compound concentration resulting in 40% increase in ATPase activity at calcium concentrations that produced 25-50% of maximum calcium dependent activation at 100 uM as single dose
Oryctolagus cuniculus = species: Oryctolagus cuniculus; test: Activation of rabbit myosin in skeletal muscle assessed as compound concentration resulting in 40% increase in ATPase activity at calcium concentrations that produced 25-50% of maximum calcium dependent activation at 100 uM as single dose
[11] = Induction of contractility in Sprague-Dawley rat Cardiomyocytes assessed as change in increase in fractional shortening at 2 uM; type: functional, Cardiac muscle cell
Gallus gallus = species: Gallus gallus; test: Activation of chicken gizzard myosin in smooth muscle assessed as compound concentration resulting in 40% increase in ATPase activity at calcium concentrations that produced 25-50% of maximum calcium dependent activation at 100 uM as single dose
Rattus norvegicus [12] = species: Rattus norvegicus; test: Activation of myosin in Sprague-Dawley rat cardiomyocytes assessed as compound concentration resulting in 40% increase in ATPase activity at calcium concentrations that produced 25-50% of maximum calcium dependent activation; type: cell-based
Bos taurus [13] = species: Bos taurus; test: Activation of bovine uterus myosin in smooth muscle assessed as compound concentration resulting in 40% increase in ATPase activity at calcium concentrations that produced 25-50% of maximum calcium dependent activation at 100 uM as single dose
[14] = Bioavailability in Sprague-Dawley rat; type: ADME, organism-based; conditions: in vivo
[15] = Clearance in Beagle dog heart failure model; type: ADME, organism-based, Canis lupus familiaris; conditions: in vivo
[16] = Induction of contractility in Sprague-Dawley rat Cardiomyocytes assessed as change in fractional shortening at 0.2 uM; type: functional, Cardiac muscle cell
[17] = Volume of distribution in Sprague-Dawley rat; type: ADME, organism-based; conditions: in vivo
[18] = Clearance in Sprague-Dawley rat; type: ADME, organism-based; conditions: in vivo
[19] = Volume of distribution in Beagle dog heart failure model; type: ADME, organism-based, Canis lupus familiaris; conditions: in vivo
[20] = Bioavailability in Beagle dog heart failure model; type: ADME, organism-based, Canis lupus familiaris; conditions: in vivo

## O=C(Nc1cccc(Oc2cccnc2)c1)c1ccc(F)cc1
Rattus norvegicus [1]
  Activity: 32 µM
[2]
  solubility kinetic: 17 µg/mL (≈ 55.1 µM)

## COc1ccc(NC(=O)Nc2cc(F)cc(Oc3cccnc3)c2)cc1
[3]
  fraction unbound: 0.049
Rattus norvegicus [1]
  Activity: 0.7 µM
[4]
  Activity: 139%
[2]
  solubility kinetic: < 1 µg/mL

## COC(=O)N1CCN(Cc2cccc(NC(=O)Nc3ccc(C)nc3)c2)CC1
[3]
  fraction unbound: 0.128
Rattus norvegicus [1]
  Activity: 4.5 µM
Cytochrome P450 1A2
  IC50: > 10 µM
[5]
  Activity: 126%
Aorta
  R50: 15 µM
[6]
  solubility thermodynamic: 4000 µg/mL (≈ 10400 µM)
[7]
  hepatic extraction ratio: < 0.2

## O=C(Nc1ccc(F)cc1)Nc1cc(F)cc(Oc2cccnc2)c1
Rattus norvegicus [1]
  Activity: 1.8 µM
[4]
  Activity: 121%
[2]
  solubility kinetic: 1.1 µg/mL (≈ 3.22 µM)

## CN(C)S(=O)(=O)N1CCC[C@@H](Oc2cc(F)cc(NC(=O)Nc3cccnc3)c2)C1
[3]
  fraction unbound: 0.079
Rattus norvegicus [1]
  Activity: 0.6 µM
[5]
  Activity: 126%
Aorta
  R50: 6.6 µM
[6]
  solubility thermodynamic: 40 µg/mL (≈ 91.4 µM)

## CC(=O)N1CCC[C@@H](Oc2cc(F)cc(NC(=O)Nc3cccnc3)c2)C1
[3]
  fraction unbound: 0.175
Rattus norvegicus [1]
  Activity: 2.5 µM
Cytochrome P450 1A2
  IC50: 0.08 µM
Aorta
  R50: 1.7 µM
[6]
  solubility thermodynamic: 390 µg/mL (≈ 1050 µM)
[7]
  hepatic extraction ratio: 0.5
[4]
  Activity: 129%

## COC(=O)N1CCN(Cc2cc(F)cc(NC(=O)Nc3ccc(C)nc3)c2)CC1
[3]
  fraction unbound: 0.103
Rattus norvegicus [1]
  Activity: 1.7 µM
Cytochrome P450 1A2
  IC50: > 10 µM
[5]
  Activity: 138%
Aorta
  R50: >25 µM
[6]
  solubility thermodynamic: 4600 µg/mL (≈ 11500 µM)
[7]
  hepatic extraction ratio: < 0.2

## CN(C)S(=O)(=O)N1CC[C@@H](Oc2cc(F)cc(NC(=O)Nc3cccnc3)c2)C1
[3]
  fraction unbound: 0.112
Rattus norvegicus [1]
  Activity: 0.7 µM
Cytochrome P450 1A2
  IC50: 0.06 µM
Aorta
  R50: >25 µM
[6]
  solubility thermodynamic: 13 µg/mL (≈ 30.7 µM)
[8]
  Activity: 137%
[7]
  hepatic extraction ratio: 0.9

## CC(=O)N1CCC[C@H](Oc2cc(F)cc(NC(=O)Nc3cccnc3)c2)C1
[3]
  fraction unbound: 0.175
[9]
  Activity: 122%
Rattus norvegicus [1]
  Activity: 7.3 µM
Aorta
  R50: >25 µM
[6]
  solubility thermodynamic: 550 µg/mL (≈ 1480 µM)
CYP1A2
  inhibition at 10 µM: 99%

## O=C(Nc1cccnc1)Nc1cc(F)cc(Oc2cccnc2)c1
[3]
  fraction unbound: 0.071
Rattus norvegicus [1]
  Activity: 1.1 µM
[6]
  solubility thermodynamic: 28 µg/mL (≈ 86.3 µM)
[4]
  Activity: 127%
[2]
  solubility kinetic: 46 µg/mL (≈ 142 µM)

## COC(=O)N1CCC(Oc2cc(F)cc(NC(=O)Nc3ccc(C)nc3)c2)CC1
[3]
  fraction unbound: 0.065
Rattus norvegicus [1]
  Activity: 0.8 µM
Cytochrome P450 1A2
  IC50: > 10 µM
Aorta
  R50: 11 µM
[6]
  solubility thermodynamic: 17 µg/mL (≈ 42.2 µM)
[7]
  hepatic extraction ratio: 0.3
[4]
  Activity: 123%

## COc1ccc(NC(=O)Nc2cc(F)cc(Oc3cccnc3)c2)cn1
[3]
  fraction unbound: 0.075
Rattus norvegicus [1]
  Activity: 1.4 µM
[4]
  Activity: 134%
[2]
  solubility kinetic: 28 µg/mL (≈ 79 µM)

## O=C(Nc1cc(Oc2cccnc2)cc([N+](=O)[O-])c1)c1ccc(F)cc1
Bos taurus [10]
  Activity: Active
Rattus norvegicus [1]
  Activity: 1.4 µM
Oryctolagus cuniculus
  Activity: inactive
[11]
  Activity: 135%
Gallus gallus
  Activity: inactive
Rattus norvegicus [12]
  Activity: Active
Bos taurus [13]
  Activity: inactive
[2]
  solubility kinetic: < 1 µg/mL

## COC(=O)N1CCC[C@@H](Oc2cc(F)cc(NC(=O)Nc3cccnc3)c2)C1
[3]
  fraction unbound: 0.096
Rattus norvegicus [1]
  Activity: 3.6 µM
Aorta
  R50: 8 µM
[6]
  solubility thermodynamic: 18 µg/mL (≈ 46.3 µM)
CYP1A2
  inhibition at 10 µM: 97%
[7]
  hepatic extraction ratio: 0.5
[4]
  Activity: 123%

## O=C(Nc1cc(F)cc(Oc2cccnc2)c1)c1ccc(F)cc1
[3]
  fraction unbound: 0.079
Rattus norvegicus [1]
  Activity: 2.5 µM
[4]
  Activity: 104%
[2]
  solubility kinetic: 5.3 µg/mL (≈ 16.2 µM)

## COC(=O)N1CCN(Cc2cccc(NC(=O)Nc3ccc(C)nc3)c2F)CC1 [OMECAMTIV MECARBIL]
[14]
  bioavailability: 100%
[3]
  fraction unbound: 0.204
[15]
  clearance: 7.2 mL/min/kg
Rattus norvegicus [1]
  Activity: 0.58 µM
Cytochrome P450 1A2
  IC50: > 10 µM
[16]
  Activity: 123%
Aorta
  R50: >25 µM
[6]
  solubility thermodynamic: 2200 µg/mL (≈ 5480 µM)
[17]
  Vd: 3.5 L/kg
[18]
  clearance: 22 mL/min/kg
[19]
  Vd: 3.6 L/kg
[7]
  hepatic extraction ratio: < 0.2
[20]
  bioavailability: 80%

## CC(=O)N1CCC[C@@H](Oc2cc(F)cc(NC(=O)Nc3ccc(C)nc3)c2)C1
Rattus norvegicus [1]
  Activity: 2.5 µM
Cytochrome P450 1A2
  IC50: > 10 µM
Aorta
  R50: 2.4 µM
[6]
  solubility thermodynamic: 130 µg/mL (≈ 336 µM)
[7]
  hepatic extraction ratio: 0.6
[4]
  Activity: 140%
